We go through 2 compounds from patent US8168797B2, “Oxazolidinone derivative with difluorophenyl moiety, pharmaceutically acceptable salt thereof, preparation method thereof and antibiotic composition containing the same as an active ingredient” (Korea Institute of Science and Technology, priority 2008, dated 2012).

Molecules are shown by their SMILES. ≈ marks a conversion by molar mass, not a printed value.

Holding throughout (type): cell-based
The test system of assay [1] is Coagulase negative staphylococi. Description: MIC by agar dilution method using Muller-Hinton agar. To be noted: read-out: Inhibitory Activity (MIC); strain b: Coagulase negative staphylococi. The source says:
(§1) To this end, the compound of Example 2 and the currently used oxazolidinone class Linezolid were examined for minimal inhibitory concentration (hereinafter, referred to as “MIC”) against Gram-positive strains and resistant bacteria including methicillin-resistant Staphylococcus aureus (MRSA) and vancomycin resistant enterococci by an agar dilution method using Muller-Hinton agar.
(§2) As used herein, the term MIC is intended to refer to the lowest concentration of an antibiotic that will inhibit the growth of a microorganism. MIC values are expressed as μg/ml. Bacterial strains used for this assay included Haemophilus influenza, Coagulase negative staphylococi, Staphylcoccus aureus (MRSA), Enterococcus faecalis (VER), Enterococcus faecium (VR 1, VR 2), and Vancomycin resistant enterococci 1˜6.
(§3) After being incubated for 18 hours in a Muller-Hinton broth, the strains were transferred to fresh broth at a concentration of approximately 10^7 CFU/ml. Isolates were distributed with a multipoint inoculator (MIC-2000 Dynatech) at 10^4 CFU per spot onto agar plates containing the compound of the Examples or Comparative Examples.
For orientation: Agar dilution tests growth on a series of plates holding different concentrations.

Assay [2] deals with Enterococcus faecalis (VRE). The description is as above. To be noted: strain d: Enterococcus faecalis (VRE); read-out: Inhibitory Activity (MIC).
Source text: as §1, §2, §3

The test system of assay [3] is Enterococcus faecium (VR 1). Described as above. To be noted: strain e: Enterococcus faecium (VR 1); read-out: Inhibitory Activity (MIC).
Source text: as §1, §2, §3

Assay [4] deals with Enterococcus faecium (VR 2). The description is as above. To be noted: strain f: Enterococcus faecium (VR 2); read-out: Inhibitory Activity (MIC).
Source text: as §1, §2, §3

The test system of the next assay is Haemophilus influenza. The assay is described as above. To be noted: read-out: Inhibitory Activity (MIC); strain a: Haemophilus infuenz.
Source text: as §1, §2, §3

The subject of assay [5] is Staphylcoccus aureus (MRSA). The description is as above. The settings on record: Staphylococcus aureus; strain c: Staphylcoccus aureus (MRSA); read-out: Inhibitory Activity (MIC).
Source text: as §1, §2, §3

The test system of assay [6] is Vancomycin resistant enterococci 1. Described as above. To be noted: strain g: Vancomycin resistant enterococci 1; read-out: Inhibitory Activity (MIC).
Source text: as §1, §2, §3

The subject of assay [7] is Vancomycin resistant enterococci 2. Described as above. To be noted: strain h: Vancomycin resistant enterococci 2; read-out: Inhibitory Activity (MIC).
Source text: as §1, §2, §3

Assay [8] concerns Vancomycin resistant enterococci 3. The assay is described as above. To be noted: strain i: Vancomycin resistant enterococci 3; read-out: Inhibitory Activity (MIC).
Source text: as §1, §2, §3

In assay [9] the test system is Vancomycin resistant enterococci 4. Description: organism not typed. The settings on record: read-out: Inhibitory Activity (MIC).
Source text: as §1, §2, §3

Assay [10] has as its system Vancomycin resistant enterococci 5. Description: organism not typed. The settings on record: read-out: Inhibitory Activity (MIC).
Source text: as §1, §2, §3

The subject of assay [11] is Vancomycin resistant enterococci 6. Nature of the assay: organism not typed. The settings on record: read-out: Inhibitory Activity (MIC).
Source text: as §1, §2, §3

Assay [12] relates to Gram-positive strains and resistant bacteria including MRSA and vancomycin resistant enterococci. Nature of the assay: MIC by agar dilution, text summary over the strain panel. To be noted: read-out: MIC against Haemophilus influenza, Coagulase negative staphylococci and vancomycin resistant enterococci (VRE).
Source text: as §1, §2, §3

For `CC(=O)NC[C@H]1CN(c2cc(F)c(N3CC(F)C4(CC4)C3)c(F)c2)C(=O)O1` (stereo partly drawn) [Example 2, (S)—N-{{3-[3,5-Difluoro-4-(7-fluoro-5-azaspiro[2,4]heptan-5-yl)phenyl]-2-oxo-5-oxazolidinyl}methyl}acetamide], the MIC in assay [1] stood at 0.781 µg/mL (≈ 2.04 µM); in assay [2], 1.56 µg/mL (≈ 4.08 µM); in assay [3] it was 1.56 µg/mL (≈ 4.08 µM); in [4] it was 1.56 µg/mL (≈ 4.08 µM); in the assay with Haemophilus influenza, 0.781 µg/mL (≈ 2.04 µM); in assay [5], 1.56 µg/mL (≈ 4.08 µM). In addition, the MIC came out at 3.12 µg/mL (≈ 8.15 µM) in assay [6]; 1.56 µg/mL (≈ 4.08 µM) in [7]; 3.12 µg/mL (≈ 8.15 µM) in [8]; 0.781 µg/mL (≈ 2.04 µM) in assay [9]; 0.781 µg/mL (≈ 2.04 µM) in [10]; 0.781 µg/mL (≈ 2.04 µM) in assay [11].

`CC(=O)NC[C@H]1CN(c2ccc(N3CCOCC3)c(F)c2)C(=O)O1` [Linezolid, reference compound]: the MIC in assay [1] was 3.12 µg/mL (≈ 9.26 µM); in the assay on Haemophilus influenza it was 3.12 µg/mL (≈ 9.26 µM); in assay [12], 1.56 to 3.12 µg/mL (≈ 4.63 to 9.26 µM).
